{"source": "PubChem BioAssay AID1259409", "about": "(Chemical Carcinogenesis Research Information System (CCRIS), 2018)", "origin": "cited, not measured here", "test_system": "rodent chemically induced tumor inhibition, incidence and multiplicity", "assay": "CCRIS tumor inhibitor studies", "details": "Dose [Inhibitor]: 0, Route [Inhibitor]: ORAL"}
{"smiles": "O=C(O)c1ccc(O)c(O)c1", "values": [{"measurement": "tumour outcome (control, treated, inhibition, significance)", "setting": "Carcinogen: N-BUTYL-N-(4-HYDROXYBUTYL)NITROSAMINE, 3817-11-6, 2000 PPM IN DIET FOR 33 WK BEGINNING 1 WK POST CARCINOGEN TREATMENT (STUDY DURATION: 41 WK), Species: RAT, Strain/Sex: F344/MALE, Target Tissue: Type of Lesion: BLADDER: CARCINOMA, Dose [Carcinogen]: 0.05% IN DRINKING WATER FOR 6 WK, Promoter: NONE USED", "result": "17/22 (77%), 11/27 (41%), 47%, p<0.03"}, {"measurement": "tumour outcome (control, treated, inhibition, significance)", "setting": "Carcinogen: N-BUTYL-N-(4-HYDROXYBUTYL)NITROSAMINE, 3817-11-6, 2000 PPM IN DIET FOR 33 WK BEGINNING 1 WK POST CARCINOGEN TREATMENT (STUDY DURATION: 41 WK), Species: RAT, Strain/Sex: F344/MALE, Target Tissue: Type of Lesion: BLADDER: PAPILLOMA, Dose [Carcinogen]: 0.05% IN DRINKING WATER FOR 6 WK, Promoter: NONE USED", "result": "1/22 (5%), 1/27 (4%), 20%, not significant"}, {"measurement": "tumour outcome (control, treated, inhibition, significance)", "setting": "Carcinogen: N-METHYL-N-NITROSOUREA, 684-93-5, 1000 PPM IN DIET FOR 14 WK BEGINNING 1 WK PRIOR TO CARCINOGEN TREATMENT (STUDY DURATION: 32 WK), Species: RAT, Strain/Sex: F344/MALE, Target Tissue: Type of Lesion: GLANDULAR STOMACH: ADENOCARCINOMA, Dose [Carcinogen]: 400 PPM IN DRINKING WATER FOR 12 WK, Promoter: NONE USED", "result": "59%, 18%, 69%, p<0.05"}, {"measurement": "tumour outcome (control, treated, inhibition, significance)", "setting": "Carcinogen: N-METHYL-N-NITROSOUREA, 684-93-5, 1000 PPM IN DIET FOR 14 WK BEGINNING 1 WK PRIOR TO CARCINOGEN TREATMENT (STUDY DURATION: 36 WK), Species: RAT, Strain/Sex: F344/MALE, Target Tissue: Type of Lesion: GLANDULAR STOMACH: ADENOCARCINOMA, Dose [Carcinogen]: 400 PPM IN DRINKING WATER FOR 12 WK, Promoter: NONE USED", "result": "13/22 (59%), 4/22 (18%), 69%, p<0.05"}, {"measurement": "tumour outcome (control, treated, inhibition, significance)", "setting": "Carcinogen: N-NITROSOBIS(2-OXOPROPYL)AMINE, 60599-38-4, 500 PPM IN DIET FOR 49 WK BEGINNING 1 WK POST CARCINOGEN LAST TREATMENT (STUDY DURATION: 51 WK), Species: HAMSTER, Strain/Sex: SYRIAN/FEMALE, Target Tissue: Type of Lesion: KIDNEY: ADENOCARCINOMA, Dose [Carcinogen]: 20 MG/KG BW 1/WK FOR 2 WK", "result": "7%, 7%, 0%, not significant"}, {"measurement": "tumour outcome (control, treated, inhibition, significance)", "setting": "Carcinogen: N-NITROSOBIS(2-OXOPROPYL)AMINE, 60599-38-4, 500 PPM IN DIET FOR 49 WK BEGINNING 1 WK POST CARCINOGEN LAST TREATMENT (STUDY DURATION: 51 WK), Species: HAMSTER, Strain/Sex: SYRIAN/FEMALE, Target Tissue: Type of Lesion: LIVER: CHOLANGIOCELLULAR CARCINOMA, Dose [Carcinogen]: 20 MG/KG BW 1/WK FOR 2 WK", "result": "65.5%, 59%, 12%, not significant"}, {"measurement": "tumour outcome (control, treated, inhibition, significance)", "setting": "Carcinogen: N-NITROSOBIS(2-OXOPROPYL)AMINE, 60599-38-4, 500 PPM IN DIET FOR 49 WK BEGINNING 1 WK POST CARCINOGEN LAST TREATMENT (STUDY DURATION: 51 WK), Species: HAMSTER, Strain/Sex: SYRIAN/FEMALE, Target Tissue: Type of Lesion: LIVER: HEMANGIOMA, Dose [Carcinogen]: 20 MG/KG BW 1/WK FOR 2 WK", "result": "3%, 0%, 100%, not significant"}, {"measurement": "tumour outcome (control, treated, inhibition, significance)", "setting": "Carcinogen: N-NITROSOBIS(2-OXOPROPYL)AMINE, 60599-38-4, 500 PPM IN DIET FOR 49 WK BEGINNING 1 WK POST CARCINOGEN LAST TREATMENT (STUDY DURATION: 51 WK), Species: HAMSTER, Strain/Sex: SYRIAN/FEMALE, Target Tissue: Type of Lesion: LIVER: HEPATOCELLULAR ADENOMA, Dose [Carcinogen]: 20 MG/KG BW 1/WK FOR 2 WK", "result": "72%, 79%, -9%, not significant"}, {"measurement": "tumour outcome (control, treated, inhibition, significance)", "setting": "Carcinogen: N-NITROSOBIS(2-OXOPROPYL)AMINE, 60599-38-4, 500 PPM IN DIET FOR 49 WK BEGINNING 1 WK POST CARCINOGEN LAST TREATMENT (STUDY DURATION: 51 WK), Species: HAMSTER, Strain/Sex: SYRIAN/FEMALE, Target Tissue: Type of Lesion: LIVER: HEPATOCELLULAR CARCINOMA, Dose [Carcinogen]: 20 MG/KG BW 1/WK FOR 2 WK", "result": "17%, 14%, 20%, not significant"}, {"measurement": "tumour outcome (control, treated, inhibition, significance)", "setting": "Carcinogen: N-NITROSOBIS(2-OXOPROPYL)AMINE, 60599-38-4, 500 PPM IN DIET FOR 49 WK BEGINNING 1 WK POST CARCINOGEN LAST TREATMENT (STUDY DURATION: 51 WK), Species: HAMSTER, Strain/Sex: SYRIAN/FEMALE, Target Tissue: Type of Lesion: LUNG: ADENOCARCINOMA, Dose [Carcinogen]: 20 MG/KG BW 1/WK FOR 2 WK", "result": "33%, 33%, 0%, not significant"}, {"measurement": "tumour outcome (control, treated, inhibition, significance)", "setting": "Carcinogen: N-NITROSOBIS(2-OXOPROPYL)AMINE, 60599-38-4, 500 PPM IN DIET FOR 49 WK BEGINNING 1 WK POST CARCINOGEN LAST TREATMENT (STUDY DURATION: 51 WK), Species: HAMSTER, Strain/Sex: SYRIAN/FEMALE, Target Tissue: Type of Lesion: LUNG: ADENOMA, Dose [Carcinogen]: 20 MG/KG BW 1/WK FOR 2 WK", "result": "83%, 87%, -4%, not significant"}, {"measurement": "tumour outcome (control, treated, inhibition, significance)", "setting": "Carcinogen: N-NITROSOBIS(2-OXOPROPYL)AMINE, 60599-38-4, 500 PPM IN DIET FOR 49 WK BEGINNING 1 WK POST CARCINOGEN LAST TREATMENT (STUDY DURATION: 51 WK), Species: HAMSTER, Strain/Sex: SYRIAN/FEMALE, Target Tissue: Type of Lesion: OVARY: CYSTADENOMA, Dose [Carcinogen]: 20 MG/KG BW 1/WK FOR 2 WK", "result": "3%, 3%, 0%, not significant"}, {"measurement": "tumour outcome (control, treated, inhibition, significance)", "setting": "Carcinogen: N-NITROSOBIS(2-OXOPROPYL)AMINE, 60599-38-4, 500 PPM IN DIET FOR 49 WK BEGINNING 1 WK POST CARCINOGEN LAST TREATMENT (STUDY DURATION: 51 WK), Species: HAMSTER, Strain/Sex: SYRIAN/FEMALE, Target Tissue: Type of Lesion: PANCREAS: ADENOCARCINOMA, Dose [Carcinogen]: 20 MG/KG BW 1/WK FOR 2 WK", "result": "86%, 90%, -4%, not significant"}, {"measurement": "tumour outcome (control, treated, inhibition, significance)", "setting": "Carcinogen: N-NITROSOBIS(2-OXOPROPYL)AMINE, 60599-38-4, 1000 PPM IN DIET FOR 49 WK BEGINNING 1 WK POST CARCINOGEN LAST TREATMENT (STUDY DURATION: 51 WK), Species: HAMSTER, Strain/Sex: SYRIAN/FEMALE, Target Tissue: Type of Lesion: LIVER: CHOLANGIOCELLULAR ADENOMA, Dose [Carcinogen]: 20 MG/KG BW 1/WK FOR 2 WK", "result": "31%, 34%, -11%, not significant"}, {"measurement": "tumour outcome (control, treated, inhibition, significance)", "setting": "Carcinogen: N-NITROSOBIS(2-OXOPROPYL)AMINE, 60599-38-4, 1000 PPM IN DIET FOR 49 WK BEGINNING 1 WK POST CARCINOGEN LAST TREATMENT (STUDY DURATION: 51 WK), Species: HAMSTER, Strain/Sex: SYRIAN/FEMALE, Target Tissue: Type of Lesion: LIVER: CHOLANGIOCELLULAR CARCINOMA, Dose [Carcinogen]: 20 MG/KG BW 1/WK FOR 2 WK", "result": "65%, 55%, 16%, not significant"}, {"measurement": "tumour outcome (control, treated, inhibition, significance)", "setting": "Carcinogen: N-NITROSOBIS(2-OXOPROPYL)AMINE, 60599-38-4, 1000 PPM IN DIET FOR 49 WK BEGINNING 1 WK POST CARCINOGEN LAST TREATMENT (STUDY DURATION: 51 WK), Species: HAMSTER, Strain/Sex: SYRIAN/FEMALE, Target Tissue: Type of Lesion: LIVER: HEPATOCELLULAR ADENOMA, Dose [Carcinogen]: 20 MG/KG BW 1/WK FOR 2 WK", "result": "72% 59%, 19%, not significant"}, {"measurement": "tumour outcome (control, treated, inhibition, significance)", "setting": "Carcinogen: N-NITROSOBIS(2-OXOPROPYL)AMINE, 60599-38-4, 1000 PPM IN DIET FOR 49 WK BEGINNING 1 WK POST CARCINOGEN LAST TREATMENT (STUDY DURATION: 51 WK), Species: HAMSTER, Strain/Sex: SYRIAN/FEMALE, Target Tissue: Type of Lesion: LIVER: HEPATOCELLULAR CARCINOMA, Dose [Carcinogen]: 20 MG/KG BW 1/WK FOR 2 WK", "result": "17%, 21%, -20%, not significant"}, {"measurement": "tumour outcome (control, treated, inhibition, significance)", "setting": "Carcinogen: N-NITROSOBIS(2-OXOPROPYL)AMINE, 60599-38-4, 1000 PPM IN DIET FOR 49 WK BEGINNING 1 WK POST CARCINOGEN LAST TREATMENT (STUDY DURATION: 51 WK), Species: HAMSTER, Strain/Sex: SYRIAN/FEMALE, Target Tissue: Type of Lesion: LUNG: ADENOCARCINOMA, Dose [Carcinogen]: 20 MG/KG BW 1/WK FOR 2 WK", "result": "33%, 39%, -18%, not significant"}, {"measurement": "tumour outcome (control, treated, inhibition, significance)", "setting": "Carcinogen: N-NITROSOBIS(2-OXOPROPYL)AMINE, 60599-38-4, 1000 PPM IN DIET FOR 49 WK BEGINNING 1 WK POST CARCINOGEN LAST TREATMENT (STUDY DURATION: 51 WK), Species: HAMSTER, Strain/Sex: SYRIAN/FEMALE, Target Tissue: Type of Lesion: LUNG: ADENOMA, Dose [Carcinogen]: 20 MG/KG BW 1/WK FOR 2 WK", "result": "83%, 89%, -7%, not significant"}, {"measurement": "tumour outcome (control, treated, inhibition, significance)", "setting": "Carcinogen: N-NITROSOBIS(2-OXOPROPYL)AMINE, 60599-38-4, 1000 PPM IN DIET FOR 49 WK BEGINNING 1 WK POST CARCINOGEN LAST TREATMENT (STUDY DURATION: 51 WK), Species: HAMSTER, Strain/Sex: SYRIAN/FEMALE, Target Tissue: Type of Lesion: PANCREAS: ADENOCARCINOMA, Dose [Carcinogen]: 20 MG/KG BW 1/WK FOR 2 WK", "result": "86%, 90%, -4%, not significant"}]}
